Assay results: PubChem BioAssay (NCI)
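1) Cells in 96-well plates. 2) Compound, 48 h, 5 concentrations. 3) Linear interpolation between surrounding doses. 4) Unreached endpoint = highest concentration. The concentration for full growth arrest is given as TGI.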

Tests used:
RXF-631 renal = assay: NCI tumour cell line growth inhibition, 48 h
P388 leukemia = assay: NCI tumour cell line growth inhibition, 48 h

COc1ccc(C(=O)C2=NON3OC23C(=O)c2ccc(OC)cc2)cc1 (stereo not drawn)
TGI (RXF-631 renal): 31.8 µM

Cn1c(=O)[nH]c2nncnc2c1=O
TGI (P388 leukemia): 148 µM

COc1ccc2nc3c(C(=O)NCCN(C)C)cccc3cc2c1
TGI (P388 leukemia): 1.49 µM
